Structures are written as SMILES.

A short description of series [1]: Cmax in CD1 mouse at 200 mg/kg, po administered as single dose by HPLC-MS/MS analysis. Particulars: in vivo. The class given is ADME, organism-based. The arrangement: dose 200 mg/kg, route oral.
The species named for series [2] is Mus musculus. Put plainly: Inhibition of hedgehog signaling pathway in mouse Light2 cells stimulated with 100 nM SAG after 30 hrs by Gli-firefly luciferase reporter gene assay. In general terms: Reporter assays use an easily measured gene product as a stand-in for the process of interest.
Assay in series [3]: as above
Series [4] can be described thus: Apparent terminal volume of distribution in CD1 mouse at 200 mg/kg, po administered as single dose by HPLC-MS/MS analysis. The class given is ADME, organism-based. To be noted: in vivo, read-out: Vz/F.
A further series deals with CYP2C19 (Homo sapiens, UniProt P33261). Put plainly: Inhibition of recombinant human CYP2C19 expressed in insect cell microsomes at 1 uM using Luciferin-H EGE as substrate preincubated for 20 mins followed by NADPH addition measured after 30 mins by luminometric method. To be noted: probe Luciferin-H EGE. The series is classed as ADME.
CYP2C19, sequence (P33261 whole entry): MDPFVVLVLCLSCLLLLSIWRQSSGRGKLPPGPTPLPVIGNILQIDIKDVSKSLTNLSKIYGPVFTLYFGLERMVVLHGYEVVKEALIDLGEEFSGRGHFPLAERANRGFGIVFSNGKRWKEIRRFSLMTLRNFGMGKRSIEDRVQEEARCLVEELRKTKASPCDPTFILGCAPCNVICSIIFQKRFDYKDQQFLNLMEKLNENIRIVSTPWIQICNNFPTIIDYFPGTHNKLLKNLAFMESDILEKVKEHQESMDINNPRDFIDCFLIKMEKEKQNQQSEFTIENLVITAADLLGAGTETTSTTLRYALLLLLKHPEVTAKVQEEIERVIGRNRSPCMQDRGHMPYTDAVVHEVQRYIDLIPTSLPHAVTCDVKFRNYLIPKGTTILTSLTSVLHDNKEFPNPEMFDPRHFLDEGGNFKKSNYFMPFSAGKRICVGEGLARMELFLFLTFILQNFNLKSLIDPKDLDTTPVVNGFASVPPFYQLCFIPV
Series [5] addresses T1, Coelenterazine h 2-monooxygenase (Renilla reniformis, UniProt P27652).
T1 sequence (P27652 whole entry): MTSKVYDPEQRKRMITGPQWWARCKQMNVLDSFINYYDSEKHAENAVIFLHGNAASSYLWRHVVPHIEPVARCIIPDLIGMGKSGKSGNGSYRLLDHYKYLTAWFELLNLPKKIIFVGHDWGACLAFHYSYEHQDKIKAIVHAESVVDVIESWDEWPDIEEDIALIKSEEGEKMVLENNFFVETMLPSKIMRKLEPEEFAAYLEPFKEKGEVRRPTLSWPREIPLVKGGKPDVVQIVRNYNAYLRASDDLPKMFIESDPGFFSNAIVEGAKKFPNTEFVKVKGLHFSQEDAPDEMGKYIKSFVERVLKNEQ
Put plainly: Effect on Renilla reniformis luciferase. The series is classed as ADME.

The target in a further series is CYP2C9 (Homo sapiens, UniProt P11712). Put plainly: Inhibition of recombinant human CYP2C9 expressed in insect cell microsomes at 1 uM using Luciferin-H as substrate preincubated for 30 mins followed by NADPH addition measured after 30 mins by luminometric method. The series is classed as ADME. To be noted: probe Luciferin-H.
CYP2C9, sequence (P11712 whole entry): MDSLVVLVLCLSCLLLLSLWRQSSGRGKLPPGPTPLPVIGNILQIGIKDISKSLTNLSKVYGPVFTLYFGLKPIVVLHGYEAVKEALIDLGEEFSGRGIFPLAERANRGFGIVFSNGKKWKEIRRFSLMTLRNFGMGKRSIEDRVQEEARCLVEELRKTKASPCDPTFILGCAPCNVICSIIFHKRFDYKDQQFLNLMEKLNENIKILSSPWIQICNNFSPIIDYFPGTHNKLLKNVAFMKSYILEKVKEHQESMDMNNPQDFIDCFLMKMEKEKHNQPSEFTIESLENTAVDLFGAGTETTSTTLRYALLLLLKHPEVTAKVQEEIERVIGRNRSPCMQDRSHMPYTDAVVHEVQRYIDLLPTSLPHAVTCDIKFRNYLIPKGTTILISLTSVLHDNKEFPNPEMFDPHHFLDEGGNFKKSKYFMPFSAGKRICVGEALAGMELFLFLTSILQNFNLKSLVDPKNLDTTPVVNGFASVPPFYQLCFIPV
The subject of the next series is HT-1080. Put plainly: Antiproliferative activity against human HT1080 cells after 72 hrs by sulforhodamine-B assay. Particulars: for IC50: HT-1080, 72 h. The series is classed as functional, cell-based. (In general: The SRB assay estimates cell density from bound dye.)
The nature of series [6]: AUClast in CD1 mouse at 200 mg/kg, po administered as single dose by HPLC-MS/MS analysis. The series is classed as ADME, organism-based. The arrangement: dose 200 mg/kg, time 0 - last, route oral. To be noted: in vivo.
Series [7] is described as follows: Stability of the compound in mouse deproteinized plasma at 37 degC after 120 mins by HPLC-MS/MS analysis. To be noted: 2 h. The class given is ADME, cell-free.
Series [8] in a line: Half life in cryopreserved mouse liver microsomes at 1 uM after 120 mins by HPLC-MS/MS analysis. The series is classed as ADME, microsome.
The next series relates to LS180. Put plainly: Antitumor activity against human LS180 cells xenografted in athymic nude mouse assessed as tumor growth inhibition at 200 mg/kg, po administered 5 days per week for 2 weeks relative to vehicle-treated control. Particulars: read-out: TGI. The class given is functional. In general terms: A xenograft is tissue or cells of one species grown in another, often human tumour cells in immunodeficient mice.

Series [9] has as its system Mus musculus. Put plainly: Toxicity in athymic nude mouse xenografted with human LS180 cells assessed as body weight loss at 200 mg/kg, po administered 5 days per week for 2 weeks. The class given is organism-based. Particulars: in vivo.
Series [10] in a line: Intrinsic clearance in mouse liver […] per million cells at 1 uM after 120 mins by HPLC-MS/MS analysis. The class given is ADME. Particulars: 2 h.
The nature of series [11]: Intrinsic clearance in mouse liver microsomes at 1 uM after 120 mins by HPLC-MS/MS analysis. The series is classed as ADME, microsome. To be noted: read-out: CLH.
The nature of series [12]: Drug recovery in mouse deproteinized plasma at 37 degC after 120 mins by HPLC-MS/MS analysis. The class given is ADME, cell-free. To be noted: read-out: Drug recovery.

As to `COc1cc(C(=O)NC(=N)Nc2ccc(C)c(NC(=O)c3ccc(-c4ccc(F)cc4)cc3)c2)cc(OC)c1OC.Cl`, the Cmax – broadly, the maximum level reached in the sampled fluid or tissue – in series [1] came to 17300 ng/mL. Moreover, in the series filed under Mus musculus [2], the inhibition – broadly, the drop in the measured response relative to a control, in per cent – is “Dose-dependent effect”. Moreover, the IC50 (as a rule, the concentration that gives 50% inhibition) in series [3] worked out at 50 nM; in the series with HT-1080, 20000 nM. The Vd/F in series [4] came out at 3.32 L/kg. Further, the results for the inhibition at 0.5 h, 1 µM on CYP2C19 and on CYP2C9 were 59% and 63%, respectively. The Activity result in series [5] was “Not Active”; in the series with HT-1080, “Dose-dependent effect”. For the same compound, the AUC(0-t) (as a rule, exposure summed from dosing to a finite time, without extrapolation to infinity) in series [6] turned out to be 223 µg·h/mL. Moreover, the Stability entry in [7] is given as “Stable”.
For the compound `COc1cc(C(=O)NC(=N)Nc2ccc(C)c(NC(=O)c3ccc(CCc4ccccc4)cc3)c2)cc(OC)c1OC.Cl`, the half-life (usually the time needed for the level to fall by half in the phase considered) at 1 µM in series [8] was found to be 8.07 min. Moreover, in the series with LS180, the inhibition in vivo at 200 mg/kg worked out at 48%. Besides, the Activity entry with Mus musculus [9] is “Non-Toxic”; in [5], “Not Active”; in the series with HT-1080, “Dose-dependent effect”. This compound displayed a Cmax in series [1] of 11000 ng/mL. Besides, the CLH in [10] is 286 µL/min. Besides, the inhibition result in the series listed under Mus musculus [2] was “Dose-dependent effect”. In addition, the values for the IC50 (in [3]; in the series on HT-1080) were 20 nM and 2000 nM, respectively. For the same compound, in [11], the CLint scaled at 1 µM came to 756 mL/min/kg. In series [4], the Vd/F was found to be 5.28 L/kg. Moreover, the inhibition at 0.5 h, 1 µM at CYP2C19 turned out to be 67%; on CYP2C9 it was 68%. Besides, the AUC(0-t) in series [6] was determined as 137 µg·h/mL. Besides, the Stability result in series [7] is “Stable”.
On to `COc1cc(C(=O)NC(=N)Nc2ccc(C)c(NC(=O)c3ccc(-c4ccccc4)cc3)c2)cc(OC)c1OC.Cl`, for which the highest level in [1] (Cmax) was 29600 ng/mL. Further, in the series filed under Mus musculus [2], the inhibition entry is “Dose-dependent effect”. For the same compound, the half-inhibitory concentration (IC50) in [3] was 70 nM; in the series with HT-1080, 29000 nM. Moreover, the Vd/F in [4] came out at 2.96 L/kg. In addition, the inhibition at 0.5 h, 1 µM was determined as 57% on CYP2C19 and 43% on CYP2C9. Also, the Activity result in series [5] is “Not Active”; in the series on HT-1080, “Dose-dependent effect”. For the same compound, the remaining at 2 h in series [12] is 83%. This compound also displayed an AUC(0-t) in series [6] of 237 µg·h/mL.
